How the values were obtained:
[1] = tested on: HCV genotype 1b (HCV-1b) replicon cells; test: HCV genotype 1b replicon luciferase assay (EC50); format: cell-based, hepatitis C virus genotype 1b (Con1 clone); details: 3 days, luciferase (Bright-Glo)
Procedure, shortened: (§1)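 H77-derived 1a (K1691R, K2040R, S2204I) or Con1-derived 1b (E1202G, T1280I, K1846T) luciferase replicon cells, 8000/well, exposed 3 days at 37° C. to 6-point 5-fold dilutions (top 100, 10 or 1 nM; 0.5% DMSO), in duplicate. Bright-Glo luminescence read; EC50 from nonlinear fit of % inhibition.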

[2] = Cell Titer-fluor cell activity assay in HCV-1b replicon cells (CC50); format: cell-based
Description: The EC50 and CC50 values of anti-HCV compounds were determined by HCV genotype 1a (HCV-1a) and 1B (HCV-1b) stable transfer replication (replicon) cells. The source of genotype 1a replicon is H77 clones containing K1691R, K2040R and S2204I adaptive mutations. The source of genotype 1b replicon is Con1 clones containing E1202G, T1280I and K1846T adaptive mutations.
HCV Replicon Cell Lines: HCV-1a and HCV-1b Cells
The compound powder was dissolved in 100% DMSO. Then the compound was diluted 5 times with 6 points, and added into the cell plate with Echo liquid handler. Ensure the final concentration of DMSO was 0.5%. Each compound was tested in double holes. Maximum initial concentration was 100, 10 or 1 nM, 5 times dilution, 6 points.
b) Cell Culture (HCV-1a or HCV-1b Replicon Cell):
1) absorbing the culture supernatant of the cell culture and washing the cells with 10 mL PBS.
2) adding preheated pancreatin to the washed cell culture flasks, rotating culture bottle to make the bottom of the culture bottle uniformly covered by pancreatin, then placed into 37° C., 5% CO2 incubator to digest.
3) suspending cells in each T150 culture flask with 10-15 mL culture medium, absorbing 0.1 mL liquid and diluting 2 times by trypan blue solution as counted.
4) diluting cells to 8×10^4/mL with the culture medium, adding the diluted cells into the compound-containing 96-well plate (Greiner, Cat.#655090) (100 μL/well, 8000 cells/well) with automatic liquid separator (Thermo Scientific). Then place into a 37° C., 5% CO2 incubator for 3 days. Cell control well: no compound, only containing 0.5% DMSO.
5) adding chemiluminescent substrate Cell Titer-fluor to the cell well, after incubation for 30 minutes, detecting the signal by chemiluminescence detection system Envison (Ex at 405 nm and read at 515 nm). The effect of the compounds on the activity of HCV replicon cells was analyzed according to the luminescence data, which was used to calculate the CC50 values.
The EC50 or CC50 values were obtained by nonlinear fitting analysis on inhibition percentage (inh %) data with GraphPad Prism software.

[3] = tested on: HCV genotype 1a (HCV-1a) replicon cells; test: HCV genotype 1a replicon luciferase assay (EC50); format: cell-based, hepatitis C virus genotype 1a (H77 clone); details: 3 days, luciferase (Bright-Glo)
Procedure, shortened: as §1

| Compound | EC50 ([1]; Hepatitis C virus, 72 h) [nM] | CC50 at 3 days [2] [nM] | EC50 ([3]; Hepatitis C virus, 72 h) [nM] | EC50 [1] [nM] | EC50 [3] [nM] |
| --- | --- | --- | --- | --- | --- |
| COC(=O)N[C@H](C(=O)N1CCC[C@H]1c1ccc(-c2ccc(-c3ccc(-c4cnc([C@@H]5CCCCN5C(=O)[C@@H](NC(=O)OC)[C@@H](C)OC)[nH]4)cc3)cc2)[nH]1)[C@@H](C)OC [AG_120] | 0.001 to 0.1 | > 1 | 1 to 10 | – | – |
| COC(=O)N[C@H](C(=O)N1CCC[C@H]1c1ncc(-c2ccc(-c3ccc(-c4cnc([C@H]5C6CCC(C6)[C@@H]5C(=O)NCc5cccnc5)[nH]4)cc3)cc2C)[nH]1)C(C)C (stereo partly drawn) [AA_211_A] | 0.001 to 0.1 | > 1 | 1 to 10 | – | – |
| COC(=O)N[C@H](C(=O)N1CCC[C@H]1c1ncc(-c2ccc(-c3ccc(-c4ccc([C@@H]5CCCN5C(=O)N(NC(=O)OC)C(C)C)[nH]4)cc3)cc2)[nH]1)C(C)C [AG_081_A] | 0.101 to 1 | > 5 | 10 to 100 | – | – |
| COC(=O)N[C@H](C(=O)N1CCC[C@H]1c1ncc(-c2ccc(-c3ccc(-c4cnc([C@H]5C6CCC(C6)[C@@H]5C(=O)NCc5cccnc5C(F)(F)F)[nH]4)cc3)cc2)[nH]1)C(C)C (stereo partly drawn) [AA_216_A] | 0.001 to 0.1 | > 1 | 10 to 100 | – | – |
| COC(=O)N[C@H](C(=O)N1CCC[C@H]1c1ncc(-c2ccc(-c3ccc(-c4cnc([C@H]5C6CCC(C6)[C@@H]5C(=O)NCc5ccc(N)cc5)[nH]4)cc3)cc2)[nH]1)C(C)C (stereo partly drawn) [AA_210_A] | 0.001 to 0.1 | > 1 | 10 to 100 | – | – |
| COC(=O)N[C@H](C(=O)N1CCC[C@H]1c1ncc(-c2ccc(-c3ccc(-c4cnc(C5C6CCC(C6)[C@@H]5C(=O)NCc5cccc(N)c5)[nH]4)cc3)cc2)[nH]1)[C@@H](C)OC (stereo partly drawn) [AA_226] | 0.001 to 0.1 | > 1 | 10 to 100 | – | – |
| COC(=O)N[C@H](C(=O)N1CCC[C@H]1c1ncc(-c2ccc(-c3ccc(-c4cnc([C@@H]5C6CCC(C6)[C@H]5C(=O)NC(c5cccnc5)C(C)C)[nH]4)cc3)cc2)[nH]1)C(C)C (stereo partly drawn) [AA_233_B] | 0.001 to 0.1 | > 1 | 1 to 10 | – | – |
| COC(=O)N[C@H](C(=O)N1CCC[C@H]1c1ncc(-c2ccc(-c3ccc(-c4cnc([C@@H]5C6CCC(C6)[C@H]5C(=O)NCc5cccnc5)[nH]4)cc3)cc2C)[nH]1)C(C)C (stereo partly drawn) [AA_211_B] | 0.001 to 0.1 | > 1 | 1 to 10 | – | – |
| COC(=O)N[C@H](C(=O)N1CCC[C@H]1c1ncc(-c2ccc(-c3ccc(-c4cnc(C5C6CCC(C6)[C@@H]5C(=O)NC(C)c5cccnc5)[nH]4)cc3)cc2)[nH]1)C(C)OC (stereo partly drawn) [AA_251_B] | 0.101 to 1 | > 1 | 1 to 10 | – | – |
| COC[C@H](NC(=O)OC)C(=O)N1CCC[C@H]1c1ncc(-c2ccc(-c3ccc(-c4ccc([C@@H]5CCCN5C(=O)[C@@H](NC(=O)OC)C(C)C)[nH]4)cc3)cc2)[nH]1 [AG_100] | 0.001 to 0.1 | > 1 | 0.101 to 1 | – | – |
| COC(=O)N[C@H](C(=O)N1C[C@@H](OC)C[C@H]1c1ncc(-c2ccc(-c3ccc(-c4cnc([C@H]5C6CCC(C6)[C@@H]5C(=O)NCc5cccnc5)[nH]4)cc3)cc2)[nH]1)C(C)C (stereo partly drawn) [AA_230_B] | 0.001 to 0.1 | > 1 | 1 to 10 | – | – |
| COC(=O)N[C@H](C(=O)N1CCC[C@H]1c1ncc(-c2ccc(-c3ccc(-c4cnc(C5C6CCC(C6)[C@@H]5C(=O)NCc5ccc(C(C)C)nc5)[nH]4)cc3)cc2)[nH]1)[C@@H](C)OC (stereo partly drawn) [AA_265_A] | 0.101 to 1 | > 1 | 10 to 100 | – | – |
| COC(=O)N[C@H](C(=O)N1CCC[C@H]1c1ncc(-c2ccc(-c3ccc(-c4cnc(C5C6CCC(C6)[C@@H]5C(=O)NCc5cccnc5C5CC5)[nH]4)cc3)cc2)[nH]1)[C@@H](C)OC (stereo partly drawn) [AA_256_A] | 0.001 to 0.1 | > 1 | 10 to 100 | – | – |
| COC(=O)N[C@H](C(=O)N1CCC[C@H]1c1[nH]c(-c2ccc(-c3ccc(-c4cnc([C@@H]5CCCN5C(=O)[C@@H](NC(=O)OC)[C@@H](C)OC)[nH]4)cc3)cc2)c2c1CCC2)C(C)C [AG_066] | 0.001 to 0.1 | > 1 | 1 to 10 | – | – |
| COC(=O)N[C@H](C(=O)N1CCC[C@H]1c1ncc(-c2ccc(-c3ccc(-c4cnc([C@H]5C6CCC(C6)[C@@H]5C(=O)NCc5cccnc5)[nH]4)cc3)c(F)c2)[nH]1)C(C)C (stereo partly drawn) [AA_197_A] | 0.001 to 0.1 | > 1 | 1 to 10 | – | – |
| COC(=O)N[C@H](C(=O)N1CCCC1c1ccc(-c2ccc(-c3ccc(-c4cnc([C@@H]5CCCN5C(=O)[C@@H](NC(=O)OC)C5CCOC5)[nH]4)cc3)cc2)[nH]1)C(C)C (stereo partly drawn) [AG_054] | 0.001 to 0.1 | > 10 | 0.101 to 1 | – | – |
| COC(=O)N[C@H](C(=O)N1CCC[C@H]1c1ncc(-c2ccc(-c3ccc(-c4cnc([C@H]5C6CCC(C6)[C@@H]5C(=O)NCc5ccc(C(C)C)nc5)[nH]4)cc3)cc2)[nH]1)C(C)C (stereo partly drawn) [AA_236_A] | 0.001 to 0.1 | > 1 | 10 to 100 | – | – |
| COC(=O)NC(C(=O)N1CCC[C@H]1c1nc2ccc(-c3ccc(-c4[nH]c([C@@H]5CCCN5C(=O)[C@@H](NC(=O)OC)C(C)OC)c5c4CCC5)cc3)cc2[nH]1)[C@@H](C)OC (stereo partly drawn) [AG_092] | 0.001 to 0.1 | > 1 | 10 to 100 | – | – |
| COC(=O)N[C@H](C(=O)N1CCCC1c1[nH]c(-c2ccc(-c3ccc(-c4cnc([C@@H]5CCCN5C(=O)[C@@H](NC(=O)OC)C(C)C)[nH]4)cc3)cc2)c2c1COC2)C(C)C (stereo partly drawn) [AG_060] | 0.001 to 0.1 | > 1 | 0.101 to 1 | – | – |
| COC(=O)N[C@H](C(=O)N1CCC[C@H]1c1ncc(-c2ccc(-c3ccc(-c4cnc(C5C6CCC(C6)[C@@H]5C(=O)NC(C)c5cnccn5)[nH]4)cc3)cc2)[nH]1)[C@@H](C)OC (single isomer, unassigned) [AA_281_A] | – | > 1 | – | 0.001 to 0.1 | 0.101 to 1 |
| COC(=O)N[C@H](C(=O)N1CCC[C@H]1c1ncc(-c2ccc(-c3ccc(-c4cnc([C@H]5C6CCC(C6)[C@@H]5C(=O)NCc5cccnc5F)[nH]4)cc3)cc2)[nH]1)C(C)C (stereo partly drawn) [AA_224_A] | 0.001 to 0.1 | > 1 | 1 to 10 | – | – |
| COC(=O)N[C@H](C(=O)N1CCC[C@H]1c1ncc(-c2ccc(-c3ccc(-c4cnc(C5C6CCC(C6)[C@H]5C(=O)NCc5ccccn5)[nH]4)cc3)cc2)[nH]1)[C@@H](C)OC (stereo partly drawn) [AA_221_A] | 0.001 to 0.1 | > 1 | 1 to 10 | – | – |
| COC(=O)N[C@H](C(=O)N1CCC[C@H]1c1ccc(-c2ccc(-c3ccc(-c4cnc([C@@H]5CCCN5C(=O)[C@@H](NC(=O)OC)[C@@H](C)OC)[nH]4)cc3)cc2)[nH]1)[C@@H](C)OC [AG_118_B] | 0.001 to 0.1 | > 1 | 1 to 10 | – | – |
| COC(=O)N[C@H](C(=O)N1CCC[C@@H]1c1ccc(-c2ccc(-c3ccc(-c4cnc([C@@H]5CCCN5C(=O)[C@@H](NC(=O)OC)[C@@H](C)OC)[nH]4)cc3)cc2)[nH]1)C(C)C [AG_061_B] | 0.001 to 0.1 | > 10 | 0.101 to 1 | – | – |
| COC(=O)N[C@H](C(=O)N1CCCC1c1ncc(-c2ccc(-c3ccc(-c4cnc([C@H]5C6CCC(C6)C5C(=O)NCc5cccnc5)[nH]4)cc3)c(F)c2)[nH]1)[C@@H](C)OC (stereo partly drawn) [AA_280_B] | 0.001 to 0.1 | > 1 | 0.101 to 1 | – | – |
| COC(=O)N[C@H](C(=O)N1CCCC[C@H]1c1ncc(-c2ccc(-c3ccc(-c4[nH]c([C@@H]5CCCN5C(=O)[C@@H](NC(=O)OC)C(C)OC)c5c4COC5)cc3)cc2)[nH]1)C(C)C (stereo partly drawn) [AG_123] | 0.001 to 0.1 | > 1 | 1 to 10 | – | – |
| COC(=O)N[C@H](C(=O)N1CCC[C@H]1c1ncc(-c2ccc(-c3ccc(-c4cnc(C5C6CCC(C6)[C@H]5C(=O)N(NC(=O)OC)C(C)C)[nH]4)cc3)cc2)[nH]1)C(C)C (stereo partly drawn) [AA_121_B] | – | > 10 | 1 to 10 | 0.001 to 0.1 | – |
| COC(=O)N[C@H](C(=O)N1CCC[C@H]1c1ncc(-c2ccc(-c3ccc(-c4cnc([C@@H]5C6CCC(C6)[C@H]5C(=O)NCc5ccc(C(C)C)nc5)[nH]4)cc3)cc2)[nH]1)C(C)C (stereo partly drawn) [AA_236_B] | 0.101 to 1 | > 1 | 10 to 100 | – | – |
| COC(=O)N[C@H](C(=O)N1CCC[C@H]1c1ncc(-c2ccc(-c3ccc(-c4cnc([C@H]5C6CCC(C6)[C@@H]5C(=O)NCc5ccccc5)[nH]4)cc3)cc2)[nH]1)C(C)C (stereo partly drawn) [AA_207_A] | 0.001 to 0.1 | > 1 | 1 to 10 | – | – |
